Data: PubChem BioAssay (NCI)
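Grown in 96-well plates, cells were treated for 48 hours with each compound at five concentrations. Insufficient inhibition: endpoint recorded as highest concentration tested. The concentration for 50% growth inhibition is given as GI50. TGI denotes the concentration required for complete inhibition of growth.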

Tests used:
Assay in all cases: NCI-60 cell line screen, 48 h
SNB-19 CNS = test system: SNB-19 CNS
SF-268 CNS = test system: SF-268 CNS
NCI-H23 lung = test system: NCI-H23 lung
OVCAR-8 ovarian = test system: OVCAR-8 ovarian
MDA-MB-231 breast = test system: MDA-MB-231 breast
HL-60(TB) leukemia = test system: HL-60(TB) leukemia
M14 melanoma = test system: M14 melanoma
ACHN renal = test system: ACHN renal
HCT-116 colon = test system: HCT-116 colon
COLO 205 colon = test system: COLO 205 colon
T-47D breast = test system: T-47D breast
U251 CNS = test system: U251 CNS
KM12 colon = test system: KM12 colon
UACC-257 melanoma = test system: UACC-257 melanoma
CCRF-CEM leukemia = test system: CCRF-CEM leukemia
PC-3 prostate = test system: PC-3 prostate
SNB-75 CNS = test system: SNB-75 CNS
NCI-H226 lung = test system: NCI-H226 lung
SF-295 CNS = test system: SF-295 CNS
OVCAR-5 ovarian = test system: OVCAR-5 ovarian
BT-549 breast = test system: BT-549 breast
K-562 leukemia = test system: K-562 leukemia
NCI-H522 lung = test system: NCI-H522 lung
TK-10 renal = test system: TK-10 renal
OVCAR-4 ovarian = test system: OVCAR-4 ovarian
CAKI-1 renal = test system: CAKI-1 renal
SK-MEL-28 melanoma = test system: SK-MEL-28 melanoma
OVCAR-3 ovarian = test system: OVCAR-3 ovarian
A549 NSCLC = test system: A549 NSCLC
SF-539 CNS = test system: SF-539 CNS
MCF7 breast = test system: MCF7 breast
SW-620 colon = test system: SW-620 colon
RPMI-8226 leukemia = test system: RPMI-8226 leukemia
SR leukemia = test system: SR leukemia
SK-OV-3 ovarian = test system: SK-OV-3 ovarian
NCI-H460 lung = test system: NCI-H460 lung
MOLT-4 leukemia = test system: MOLT-4 leukemia
HOP-92 NSCLC = test system: HOP-92 NSCLC
HCC-2998 colon = test system: HCC-2998 colon
SN12C renal = test system: SN12C renal
HT29 colon = test system: HT29 colon
HOP-62 NSCLC = test system: HOP-62 NSCLC
MALME-3M melanoma = test system: MALME-3M melanoma
HCT-15 colon = test system: HCT-15 colon
DU-145 prostate = test system: DU-145 prostate
LOX IMVI melanoma = test system: LOX IMVI melanoma
SK-MEL-2 melanoma = test system: SK-MEL-2 melanoma
MDA-MB-435 = test system: MDA-MB-435
A498 renal = test system: A498 renal

## COc1ccc(Nc2ccc([N+](=O)[O-])cc2[N+](=O)[O-])cc1CN(CCCl)CCCl
SNB-19 CNS
  GI50: 3.22 µM
  TGI: 25 µM
SF-268 CNS
  GI50: 2.44 µM
  TGI: 16.8 µM
NCI-H23 lung
  GI50: 2.04 µM
  TGI: 5.77 µM
OVCAR-8 ovarian
  GI50: 3.02 µM
  TGI: > 100 µM
MDA-MB-231 breast
  GI50: 2.69 µM
  TGI: 9.44 µM
HL-60(TB) leukemia
  GI50: 1.88 µM
  TGI: 7.26 µM
M14 melanoma
  GI50: 2.72 µM
  TGI: 19.6 µM
ACHN renal
  GI50: 1.63 µM
  TGI: 5.94 µM
HCT-116 colon
  GI50: 1.16 µM
  TGI: 3.75 µM
COLO 205 colon
  GI50: 1.8 µM
  TGI: 7.84 µM
T-47D breast
  GI50: 2.6 µM
  TGI: 26.4 µM
U251 CNS
  GI50: 3.11 µM
  TGI: 30 µM
KM12 colon
  GI50: 3.66 µM
  TGI: 51 µM
UACC-257 melanoma
  GI50: 5.31 µM
  TGI: 34.2 µM
CCRF-CEM leukemia
  GI50: 0.64 µM
  TGI: 20.7 µM
PC-3 prostate
  GI50: 2.04 µM
  TGI: 9.59 µM
SNB-75 CNS
  GI50: 2.39 µM
  TGI: 13.4 µM
NCI-H226 lung
  GI50: 3.49 µM
  TGI: 21.4 µM
SF-295 CNS
  GI50: 2.79 µM
  TGI: 19.7 µM
OVCAR-5 ovarian
  GI50: 2.51 µM
  TGI: 8.94 µM
BT-549 breast
  GI50: 1.41 µM
  TGI: 3.96 µM
K-562 leukemia
  GI50: 2.47 µM
  TGI: 18.9 µM
NCI-H522 lung
  GI50: 1.76 µM
  TGI: 4.29 µM
TK-10 renal
  GI50: 3.76 µM
  TGI: 95.3 µM
OVCAR-4 ovarian
  GI50: 2.7 µM
  TGI: > 100 µM
CAKI-1 renal
  GI50: 1.39 µM
  TGI: 4.33 µM
SK-MEL-28 melanoma
  GI50: 3.24 µM
  TGI: 18.4 µM
OVCAR-3 ovarian
  GI50: 2.36 µM
  TGI: 7.85 µM
A549 NSCLC
  GI50: 4.43 µM
  TGI: 30.7 µM
SF-539 CNS
  GI50: 1.85 µM
  TGI: 4.85 µM
MCF7 breast
  GI50: 1.49 µM
  TGI: 13.3 µM
SW-620 colon
  GI50: 2.11 µM
  TGI: 13.4 µM
RPMI-8226 leukemia
  GI50: 1.86 µM
  TGI: 9.75 µM
SR leukemia
  GI50: 0.378 µM
  TGI: 79.5 µM
SK-OV-3 ovarian
  GI50: 3.85 µM
  TGI: > 100 µM
NCI-H460 lung
  GI50: 1.82 µM
  TGI: 6.16 µM
MOLT-4 leukemia
  GI50: 0.39 µM
  TGI: 9.94 µM
HOP-92 NSCLC
  GI50: 1.99 µM
  TGI: 5.47 µM
HCC-2998 colon
  GI50: 2.15 µM
  TGI: 6.9 µM
SN12C renal
  GI50: 2.6 µM
  TGI: > 100 µM
HT29 colon
  GI50: 2.44 µM
  TGI: 9.59 µM
HOP-62 NSCLC
  GI50: 2.97 µM
  TGI: 20.9 µM
MALME-3M melanoma
  GI50: 1.96 µM
  TGI: 4.71 µM
HCT-15 colon
  GI50: 2.48 µM
  TGI: 9.93 µM
DU-145 prostate
  GI50: 3.1 µM
  TGI: 10.5 µM
LOX IMVI melanoma
  GI50: 1.37 µM
  TGI: 3.51 µM
SK-MEL-2 melanoma
  GI50: 2.28 µM
  TGI: 5.66 µM
MDA-MB-435
  GI50: 1.92 µM
  TGI: 4.39 µM
A498 renal
  GI50: 1.88 µM
  TGI: 4.94 µM
